This note sets out measurements from US10138212B2, “Aminoquinazoline compounds as A2A antagonist” (Merck Sharp & Dohme Corp., priority 2015, dated 2018).

In general, Ki refers to the dissociation constant of the complex between target and ligand, obtained from inhibition or displacement. High values mean weaker binding, low ones tighter binding.

Experiment [1] addresses human A2a receptor (Homo sapiens (Human), UniProt P29274). The experiment in a line: A2a competition binding assay using Scintillation Proximity technology. The method in brief: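 Membranes (0.25 or 1 μg) from HEK293 expressing the receptor were pretreated with adenosine deaminase and bound to WGA-coated yttrium silicate SPA beads. They were incubated 1 h at room temperature with compound at 3000–0.15 nM and 0.5 nM tritiated pyrazolotriazolopyrimidine ligand in Ca/Mg-free DPBS with 10 mM MgCl2. Ki was derived from […] by Cheng-Prusoff.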
Background: Scintillation proximity formats need no separation of bound from free tracer.

The target of experiment [2] is human A1 receptor (Homo sapiens (Human), UniProt P30542). The experiment in a line: A1 competition binding assay using Scintillation Proximity technology; selectivity = A1 binding Ki / A2a binding Ki. To be noted: A1 binding Ki divided by A2a binding Ki. Summed up:
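SPA competition using 5 ug membranes from CHO-K1 cells expressing human A1, pretreated with adenosine deaminase. Radioligand was 0.7 nM [3H]DPCPX (final), with compound at 3000–0.15 nM in DPBS + 10 mM MgCl2. Incubation was 1 h at room temperature. Non-specific binding was defined with 1 uM DPCPX, and Ki was derived as for A2a.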

Where [3] appears, read: 0.25 μg of membranes from HEK293 cells expressing the human A2a receptor.
Where [4] appears, read: * assay run with 1 μg of membranes versus 0.25 μg, HEK293 cells expressing the human A2a receptor.

Chain of human A1 receptor (P30542 whole entry): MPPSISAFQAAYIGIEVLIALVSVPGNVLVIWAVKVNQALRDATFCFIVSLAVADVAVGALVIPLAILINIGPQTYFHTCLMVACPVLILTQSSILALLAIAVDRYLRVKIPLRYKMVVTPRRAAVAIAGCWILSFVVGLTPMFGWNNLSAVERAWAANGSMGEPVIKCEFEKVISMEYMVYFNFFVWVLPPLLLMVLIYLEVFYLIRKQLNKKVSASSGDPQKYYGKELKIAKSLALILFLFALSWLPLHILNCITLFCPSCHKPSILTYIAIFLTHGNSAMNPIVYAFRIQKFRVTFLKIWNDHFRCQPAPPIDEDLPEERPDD
Chain of human A2a receptor (P29274 whole entry): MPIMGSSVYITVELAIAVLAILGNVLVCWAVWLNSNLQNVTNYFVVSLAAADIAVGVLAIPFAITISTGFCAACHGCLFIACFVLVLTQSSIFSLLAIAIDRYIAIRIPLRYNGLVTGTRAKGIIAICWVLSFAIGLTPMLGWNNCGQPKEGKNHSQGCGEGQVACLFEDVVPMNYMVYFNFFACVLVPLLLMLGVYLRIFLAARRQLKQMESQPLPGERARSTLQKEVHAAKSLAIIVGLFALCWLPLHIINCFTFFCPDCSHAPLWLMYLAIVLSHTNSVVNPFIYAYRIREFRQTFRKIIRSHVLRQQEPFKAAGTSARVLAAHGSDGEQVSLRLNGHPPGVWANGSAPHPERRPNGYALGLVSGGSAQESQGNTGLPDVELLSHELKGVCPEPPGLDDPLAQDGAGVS

In experiment [1] (setting [3]), `Cc1ccc(F)c(CNC(=O)c2nc(N)nc3c(-c4ncco4)cccc23)n1` [Example 98, 2-amino-N-[(3-fluoro-6-methyl-2-pyridyl)methyl]-8-oxazol-2-yl-quinazoline-4-carboxamide] registered a Ki of 1.7 nM. Also, the “A2a selectivity (A2a A1 binding selectivity)” value (“A2a selectivity” for short) in experiment [2] is 133.

Compound `Nc1nc(C(=O)NCc2ncccn2)c2cccc(I)c2n1` [Example 99, 2-amino-8-iodo-N-(pyrimidin-2-ylmethyl)quinazoline-4-carboxamide] showed an inhibitory constant (Ki) in experiment [1] (setting [3]) of 229 nM. Moreover, the “A2a selectivity” value in experiment [2] stood at 8.

Consider `N#Cc1cccc2c(C(=O)NCc3cccc4cccnc34)nc(N)nc12` [Example 100, 2-amino-8-cyano-N-(8-quinolylmethyl)quinazoline-4-carboxamide], for which the Ki in experiment [1] (setting [3]) worked out at 2.1 nM. For the same compound, the “A2a selectivity” value in experiment [2] is reported as 163.

For `Nc1nc(C(=O)NCc2cccc3cccnc23)c2cccc(OC(F)(F)F)c2n1` [Example 101, 2-amino-N-(8-quinolylmethyl)-8-(trifluoromethoxy)quinazoline-4-carboxamide], the inhibition constant Ki in experiment [1] (setting [3]) turned out to be 0.2 nM. Besides, in experiment [2], the “A2a selectivity” value is given as 88.

As for `Nc1nc(C(=O)NCc2cccc(Cc3ccc(F)c(F)c3)n2)c2cccc(F)c2n1` [Example 102, 2-amino-N-[[6-[(3,4-difluorophenyl)methyl]-2-pyridyl]methyl]-8-fluoro-quinazoline-4-carboxamide], in experiment [1] (setting [3]), affinity was put at a Ki of 1.2 nM. The “A2a selectivity” value in experiment [2] stood at 33.

Turning to `COc1cccc2c(C(=O)NCc3cccc(Cc4ccccc4)n3)nc(N)nc12` [Example 103, 2-amino-N-((6-benzylpyridin-2-yl)methyl)-8-methoxyquinazoline-4-carboxamide], the Ki in experiment [1] (setting [4]) stood at 2.5 nM. Also, the “A2a selectivity” value in experiment [2] was determined as 42.

In turn, `COc1cccc2c(C(=O)NCc3cccc(Cc4cccnc4)n3)nc(N)nc12` [Example 104, 2-amino-8-methoxy-N-((6-(pyridin-3-ylmethyl)pyridin-2-yl)methyl)quinazoline-4-carboxamide] gave a Ki in experiment [1] (setting [4]) of 5 nM. In experiment [2], the “A2a selectivity” value is reported as 93.

Compound `[2H]C([2H])(NC(=O)c1nc(N)nc2c(OC)cccc12)c1cccc(C([2H])([2H])c2cccc(OCCOC)c2)n1` [Example 106, 2-amino-N-[dideuterio-[6-[dideuterio-[3-(2-methoxyethoxy)phenyl]methyl]-2-pyridyl]methyl]-8-methoxy-quinazoline-4-carboxamide] gave an inhibition constant (Ki) in experiment [1] (setting [4]) of 1.9 nM. Also, in experiment [2], the “A2a selectivity” value was determined as 70.

Regarding `[2H]C([2H])(NC(=O)c1nc(N)nc2c(OC)cccc12)c1cccc(C([2H])([2H])c2cncc(OCCOC)c2)n1` [Example 107, 2-amino-N-[dideuterio-[6-[dideuterio-[5-(2-methoxyethoxy)-3-pyridyl]methyl]-2-pyridyl]methyl]-8-methoxy-quinazoline-4-carboxamide], the Ki in experiment [1] (setting [3]) turned out to be 2 nM. For the same compound, in experiment [2], the “A2a selectivity” value is 95.

Compound `[2H]C([2H])(NC(=O)c1nc(N)nc2c(OC)cccc12)c1cccc(C([2H])([2H])c2cncc(-c3ncco3)c2)n1` [Example 108, 2-amino-N-[dideuterio-[6-[dideuterio-(5-oxazol-2-yl-3-pyridyl)methyl]-2-pyridyl]methyl]-8-methoxy-quinazoline-4-carboxamide] showed an inhibition constant (Ki) in experiment [1] (setting [4]) of 2.1 nM. Moreover, in experiment [2], the “A2a selectivity” value was 77.

`[2H]C([2H])(NC(=O)c1nc(N)nc2c(OC)cccc12)c1cccc(C([2H])([2H])c2ccc(C(C)(C)OCOC)nc2)n1` [Example 109, 2-amino-N-[dideuterio-[6-[dideuterio-[6-[1-(methoxymethoxy)-1-methyl-ethyl]-3-pyridyl]methyl]-2-pyridyl]methyl]-8-methoxy-quinazoline-4-carboxamide]: in experiment [1] (setting [4]), the affinity, expressed as Ki, was 2.3 nM. Also, the “A2a selectivity” value in experiment [2] amounted to 120.

For the compound `[2H]C([2H])(NC(=O)c1nc(N)nc2c(OC)cccc12)c1cccc(C([2H])([2H])c2cncc(N3CCOCC3)c2)n1` [Example 110, 2-amino-N-[dideuterio-[6-[dideuterio-(5-morpholino-3-pyridyl)methyl]-2-pyridyl]methyl]-8-methoxy-quinazoline-4-carboxamide], in experiment [1] (setting [4]), the affinity corresponds to a Ki of 2.5 nM. For the same compound, the “A2a selectivity” value in experiment [2] was 64.

As for `Nc1nc(C(=O)NCc2cccc(Cc3ccccc3F)n2)c2cccc(F)c2n1` [Example 111, 2-amino-8-fluoro-N-[[6-[(2-fluorophenyl)methyl]-2-pyridyl]methyl]quinazoline-4-carboxamide], the Ki in experiment [1] (setting [4]) was found to be 1.3 nM. Also, the “A2a selectivity” value in experiment [2] stood at 28.

For the compound `Nc1nc(C(=O)NCc2cccc(Cc3ccncc3)n2)c2cccc(F)c2n1` [Example 112, 2-amino-8-fluoro-N-[[6-(4-pyridylmethyl)-2-pyridyl]methyl]quinazoline-4-carboxamide], the inhibitory constant (Ki) in experiment [1] (setting [3]) stood at 1.6 nM. The “A2a selectivity” value in experiment [2] is 31.
